Data taken from PMC7482845, “G10 is a direct activator of human STING” (PLoS ONE, 2020).
Values after ≈ are worked out from the molar mass of the structure shown.

Legend:
[1] = target: T1, Q variant of human STING (Homo sapiens, UniProt Q86WV6, R293Q); assay: Luciferase (ISRE.ISG reporter) assay in HEK293T cells stably expressing Q hSTING; type: cell-based
T1 construct: expressed in transfected cells
Text: (§1) • a) Stable STING expressing cells. Stable HEK293T STING-expressing cell lines were generated using plasmids purchased from Invivogen, CA, USA, that contain STING cDNA cloned into the pUNO-1 vector under the hEF1-HTLV promoter as well as the Blasticidin selection cassette. The human STING plasmids corresponding to the R232, H232 and HAQ variants were directly procured from Invivogen while the AQ and Q variants were created by mismatch PCR using cDNA from HAQ.STING and R232.STING variants respectively. These vectors were individually transfected into HEK293T cells using Lipofectamine (Invitrogen) and transfected cells were expanded under Blasticidin selection. These cells were further subjected to clonal selection using the limiting dilution method to obtain clonally pure populations of HEK293T cells expressing each of the five human STING variants. Clones with minimal ligand independent activation of STING were chosen for cellular experiments. • b) N-His R232.hSTING HEK293T cells. […]
(§2) […] clonally selected HEK293T-hSTING-Luciferase cells or control HEK293T-Luciferase cells were seeded in 384-well plates in growth medium and stimulated with known STING agonists or novel compounds. Supernatants were removed after 20 hours of treatment and secretory reporter gene activity was measured using the Quanti-Luc detection system (Invivogen) on a Spectramax i3X luminometer.

[2] = tested on: ligand binding domain of the R232 variant of STING; set-up: method as in PMID 26646986; details: cited from earlier work
[3] = tested on: THP1 cells; set-up: method as in PMID 26646986; details: cited from earlier work
[4] = target: T2, HAQ STING (THP-1 cells) (Homo sapiens, UniProt Q86WV6, G230A/R293Q/R71H); assay: THP1 cellular assay (EC50); type: cell-based; details: THP-1 cells (HAQ STING)
T2 construct: THP1 cells constitutively express the HAQ variant of human STING; host or cells: THP-1

[5] = target: T3, mSTING (CT26 cells overexpressing mSTING) (Mus musculus, UniProt Q3TBT3); assay: Western blot of pSTING and pIRF3 in CT26 cells overexpressing mSTING; type: cell-based; details: immunoblot, 2 hours
T3 construct: expressed in transfected cells; host or cells: CT26
Description: 5 x 10^5 cells were seeded in 24-well plates in 500 μl growth medium and stimulated with novel compounds at 10μM. After 2 hours of treatment cells were harvested by centrifugation and cell pellets were lysed in RIPA buffer (20mM Tris-Cl, 150mM NaCl, 0.5mM EDTA, 1% NP40, 0.05% SDS) containing 1x phosphatase inhibitor cocktail 3 (Sigma) and 1x protease inhibitor (Roche) to extract the soluble fraction of protein. 10 μg of extracted protein was electrophoresed in 10% SDS-PAGE gels and transferred onto Immobilon-P membranes (Millipore). […] Anti-rabbit HRP label secondary antibody (Abcam) and Clarity Max™ western ECL substrate (Biorad—cat# 1705062) were used for visualization of bands using a BioRad XRS plus imager.

[6] = target: R232 STING (R232-HEK293T cells) (Homo sapiens, UniProt Q86WV6, H232R); assay: Ligand induced change in STING melting temperature, R232-HEK293T whole cells; details: whole cells (S8 and S9 Figs)
Description: Two sources of STING (ER fraction of N-His R232.hSTING HEK293T and R232.hSTING HEK293T whole cells) were used for melting temperature experiments. […] (b) 5 x 10^5 R232.hSTING cells were seeded in 24-well plates in 500 μl growth medium and stimulated with serially diluted concentrations of agonist. After 2hr of stimulation cells were harvested through centrifugation and 20 μl cells suspensions were transferred into 0.2 ml PCR-tubes and heated as above. All procedures were identical post-heating of samples. […] Precipitated proteins were separated from the soluble fraction by centrifugation at 21000g for 20 min at 4 °C. Extracted soluble protein was electrophoresed in 10% SDS-PAGE gels and transferred onto Immobilon-P membranes (Millipore). Blots were incubated with antibodies specific for total STING (Cell Signaling).

[7] = tested on: human PBMCs and umbilical endothelial cells; set-up: method as in PMID 26646986; details: cited from earlier work
[8] = target: T4, full length R232.hSTING (ER fraction of transfected HEK293T cells) (Homo sapiens, UniProt Q86WV6, H232R); assay: In vitro kinase assay, ER fraction with full length R232 STING plus recombinant TBK1; type: biochemical; details: cell free, immunoblot
T4 construct: ER fraction (8mg/ml) containing full length STING from R232.hSTING; host or cells: ER fraction of R232.hSTING HEK293T cells
Description: This was followed by homogenization 3 times with a 30 sec each pulse and 1 min cooling between each pulse. Homogenates were centrifuged at 5000g for 10 min at 4 °C to remove nuclei, mitochondria and cell membrane from the cytosolic fraction. Supernatant was further centrifuged at 100000g for 1 h at 4 °C to fractionate the ER containing cytosolic fraction. The pellet thus obtained was resuspended in homogenization buffer and washed by centrifugation at 100000g twice. Post washing, the ER fraction containing pellet was resuspended in ER buffer (final composition: 20 mM Tris-HCl, 100 mM NaCl, 5 mM MgCl2, 5 mM MnCl2, 20 mM beta Glycerophosphate, 0.2 mM Na3VO4, 1X protease inhibitor cocktail (Roche), pH 7.5) using a syringe fitted with a 26G needle passing through it several times till homogeneity. The protein content of the ER homogenate was estimated by the BCA method and aliquots were stored at -80 °C for further use. […]

[9] = target: T5, AQ variant of human STING (Homo sapiens, UniProt Q86WV6, G230A/R293Q); assay: Luciferase (ISRE.ISG reporter) assay in HEK293T cells stably expressing AQ hSTING; type: cell-based
T5 construct: expressed in transfected cells
Text: as §1, §2

[10] = Solubility under assay conditions; type: physicochemical; details: under our assay conditions; read-out: maximum solubility

T1 sequence (Q86WV6 whole entry R293Q): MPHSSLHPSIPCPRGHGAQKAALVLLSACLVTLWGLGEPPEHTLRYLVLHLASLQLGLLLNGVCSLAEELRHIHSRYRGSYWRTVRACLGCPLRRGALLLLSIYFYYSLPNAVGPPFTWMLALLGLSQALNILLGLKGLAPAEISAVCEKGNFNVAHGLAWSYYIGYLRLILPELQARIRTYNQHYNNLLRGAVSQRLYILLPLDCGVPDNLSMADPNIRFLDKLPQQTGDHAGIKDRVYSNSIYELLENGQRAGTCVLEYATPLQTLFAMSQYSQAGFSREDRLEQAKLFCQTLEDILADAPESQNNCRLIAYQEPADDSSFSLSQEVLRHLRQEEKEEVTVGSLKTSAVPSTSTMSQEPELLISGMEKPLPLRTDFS
T5 sequence (Q86WV6 whole entry G230A/R293Q): as the sequence (Q86WV6 whole entry R293Q) above, with G230A counted along it
T3 sequence (Q3TBT3 whole entry): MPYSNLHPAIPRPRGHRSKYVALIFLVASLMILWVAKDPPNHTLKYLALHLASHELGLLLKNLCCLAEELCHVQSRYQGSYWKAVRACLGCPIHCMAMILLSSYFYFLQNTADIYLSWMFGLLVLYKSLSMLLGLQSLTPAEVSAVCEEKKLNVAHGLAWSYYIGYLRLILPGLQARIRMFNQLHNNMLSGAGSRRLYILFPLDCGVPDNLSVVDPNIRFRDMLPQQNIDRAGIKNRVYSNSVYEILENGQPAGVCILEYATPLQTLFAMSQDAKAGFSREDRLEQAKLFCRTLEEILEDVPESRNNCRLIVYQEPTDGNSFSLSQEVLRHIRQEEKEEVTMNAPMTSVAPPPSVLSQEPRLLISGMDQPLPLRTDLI
T2 sequence (Q86WV6 whole entry R71H/G230A/R293Q): as the sequence (Q86WV6 whole entry R293Q) above, with R71H, G230A counted along it
Chain of R232 STING (R232-HEK293T cells) (Q86WV6 whole entry H232R): as the sequence (Q86WV6 whole entry R293Q) above, with H232R, Q293R counted along it
T4 sequence (Q86WV6 whole entry H232R): as the sequence (Q86WV6 whole entry R293Q) above, with H232R, Q293R counted along it

## O=C(NCc1ccco1)c1ccc2c(c1)N(Cc1c(F)cccc1Cl)C(=O)CS2 [Compound G10, 4-(2-Chloro-6-fluorobenzyl)-N-(furan-2-ylmethyl)-3-oxo-3,4-dihydro-2H-benzo[b][1,4]thiazine-6-carboxamide]
[1]
  activity against the Q variant: barely active
[2]
  direct engagement with ligand binding domain of R232 STING (DSF): no evidence of direct engagement
[3]
  activation of IRF3 or NFκB linked reporters in THP1: unable to activate
[4]
  THP-1 EC50: Nil @ 30uM
[5]
  phosphorylation of mSTING or mIRF3, CT26 cells overexpressing mSTING: did not lead to phosphorylation
[6]
  ligand induced change in STING melting temperature, R232-HEK293T cells: did not demonstrate a significant ligand induced change
[7]
  induction of pro-inflammatory genes incl. NFκB pathway: induced several pro-inflammatory genes
[8]
  formation of pSTING by TBK1, ER fraction with full length R232 STING: activated
[9]
  activity against the AQ variant: barely active
[10]
  solubility: 20 µM (≈ 8.62 µg/mL)
